4 compounds from patent publication US11883444B2, “Inhibition of enteric infection through the modulation of microbiota” (priority 2017, dated 2024) can be followed below.

Holding throughout (type): in vivo
One assay deals with C. rodentium. Description: C. rodentium oral infection of mice: pathogen loads in feces. Particulars: adult mice, vancomycin in drinking water; day 25-30 after infection; FIG. 2B. The procedure: (§1) Reconstitution of GF mice with cecal contents and defined bacteria. Cecal contents from single neonatal and 7-week old SPF mice were diluted into 50 ml (per one adult mouse) or 5 ml (per one 4, 12, 16-day old mouse) of PBS, and passed through a 70 μm cell strainer to eliminate clumps and debris under sterile conditions) under an atmosphere of 5% H2, 5% CO2 and 90% N2 in an anaerobic growth chamber (Coy Manufacturing, Grass Lake, MI). Then 200 μl of the suspension was processed by intragastric gavage into each of the recipient GF mice. Bacteroides species were anaerobically grown at 37° C. overnight in pre-reduced chopped-meat broth (Anaerobe systems, Morgan Hill, CA). E. coli were grown aerobically overnight in LB broth with shaking.
(§2) Enteric pathogen infection. Kanamycin (Km)-resistant and Streptomycin (Sm)-resistant Salmonella enterica serovar Typhimurium (S. Typhimurium) SL1344 ΔspiA was a gift from Dr. Denise Monack, Stanford University. Kanamycin (Km)-resistant wild-type Citrobacter rodentium strain DBS120 (pCRP1::Tn5) was a gift from Dr. David Schauer, Massachusetts Institute of Technology. […] Mice were infected by oral gavage with 0.2 ml of PBS containing approximately 5×10^7 CFU of S. Typhimurium, and 1×10^9 CFU of C. rodentium. […] Mouse survival was monitored for 7 days after infection. […]

In the next assay the test system is S. Typhimurium ΔspiA. Kind of assay: S. Typhimurium ΔspiA oral infection of mice: pathogen loads, cecal histology, survival. The procedure: as §1, §2
In the next assay the test system is fecal microbiota. Kind of assay: 16S rRNA gene analysis of the fecal microbiota. To be noted: adult mice; FIG. 7, FIG. 2D. The method, then:
Fecal pellet DNA extraction and 16S rRNA gene sequencing and sequence curation. Fecal samples were freshly collected and DNA was extracted using the E.Z.N.A® stool DNA kit. Amplicons were generated of the V4 region within the 16S rRNA gene and the fragments were sequenced using an Illumina MiSeq (14). These sequences were curated using Mothur (v.1.35) (14, 15) and sequences were binned into operational taxonomic units (OTUs). Taxonomic assignments were determined using a naive Bayesian classifier with the Ribosomal Database Project (RDP) training set (version 10) requiring an 80% bootstrap confidence score (16). Treatment with vancomycin and SCFAs and special diet. Vancomycin (250 mg/L) was administered in the mouse drinking water for 7 days before S. Typhimurium and C. rodentium infection and the treatment was kept during the length of the experiment.

Assay [1] relates to Clostridium cluster IV and XIVa. Description: Intestinal colonization of Clostridia in GF mice, qPCR of fecal DNA. Particulars: metabolite in drinking water of GF mice gavaged with Clostridia consortium; FIG. 4D, 9C. On the technique in general: In qPCR the cycle at which signal appears reflects the starting amount.

As for `CN[C@H](CC(C)C)C(=O)N[C@H]1C(=O)N[C@@H](CC(N)=O)C(=O)N[C@H]2C(=O)N[C@H]3C(=O)N[C@H](C(=O)N[C@H](C(=O)O)c4cc(O)cc(O)c4-c4cc3ccc4O)[C@H](O)c3ccc(c(Cl)c3)Oc3cc2cc(c3O[C@@H]2O[C@H](CO)[C@@H](O)[C@H](O)[C@H]2O[C@H]2C[C@](C)(N)[C@H](O)[C@H](C)O2)Oc2ccc(cc2Cl)[C@H]1O` [vancomycin], the “higher C. rodentium pathogen loads in the feces vs untreated mice” value in the assay with C. rodentium was roughly 6 logs. The “increase of S. Typhimurium colonization in fecal and cecal contents” value in the assay with S. Typhimurium ΔspiA (adult mice, vancomycin in drinking water, day 1 after infection, FIG. 2C) was in the range of 4 to 5 logs. The “change of fecal microbiota composition” value with fecal microbiota was “depleted the microbiota of Clostridiales and Bacteroidales and increased the abundance of Enterobacteriaceae and Lactobacillaceae”.
For `CC(O)C(=O)O` (stereo not shown) [lactate], the “enhanced colonization of Clostridia of IV and XIVa clusters” value (“enhanced colonization” for short) in assay [1] was “not”.
As to `CC(=O)O` [acetate], the “enhanced colonization” value in assay [1] was “not”.
`O=C(O)CCC(=O)O` [succinate]: in assay [1], the “enhanced colonization” value fell in the range of 4 to 5 logs. Further, the “reduction of intestinal loads of S. Typhimurium ΔspiA” value with S. Typhimurium ΔspiA (GF mice given succinate in drinking water and Clostridia consortium by gavage, FIG. 4E, F) is given as roughly 100 fold.
